In ChEMBL document CHEMBL1144075, “New cembranes from the soft coral sarcophyton species” (J Nat Prod, 1999):

Test system: Oryzias latipes
Assay: Ichthyotoxicity against Oryzias latipes at 20 ug/mL
Format: organism-based
Conditions: in vivo

With `C/C1=C/C[C@@H](C(C)C)/C=C/[C@](C)(O)CC/C=C(\C)CC(=O)C1` [SARTONE E] as the compound, how does the Activity read?
The Activity was “Non-toxic”.
